Results on 7 compounds are retold here after BindingDB's records for patent US12421225 (Kaken Pharmaceutical Co., 2025).

Chain of Sodium channel protein type 9 subunit alpha (Q15858 whole entry): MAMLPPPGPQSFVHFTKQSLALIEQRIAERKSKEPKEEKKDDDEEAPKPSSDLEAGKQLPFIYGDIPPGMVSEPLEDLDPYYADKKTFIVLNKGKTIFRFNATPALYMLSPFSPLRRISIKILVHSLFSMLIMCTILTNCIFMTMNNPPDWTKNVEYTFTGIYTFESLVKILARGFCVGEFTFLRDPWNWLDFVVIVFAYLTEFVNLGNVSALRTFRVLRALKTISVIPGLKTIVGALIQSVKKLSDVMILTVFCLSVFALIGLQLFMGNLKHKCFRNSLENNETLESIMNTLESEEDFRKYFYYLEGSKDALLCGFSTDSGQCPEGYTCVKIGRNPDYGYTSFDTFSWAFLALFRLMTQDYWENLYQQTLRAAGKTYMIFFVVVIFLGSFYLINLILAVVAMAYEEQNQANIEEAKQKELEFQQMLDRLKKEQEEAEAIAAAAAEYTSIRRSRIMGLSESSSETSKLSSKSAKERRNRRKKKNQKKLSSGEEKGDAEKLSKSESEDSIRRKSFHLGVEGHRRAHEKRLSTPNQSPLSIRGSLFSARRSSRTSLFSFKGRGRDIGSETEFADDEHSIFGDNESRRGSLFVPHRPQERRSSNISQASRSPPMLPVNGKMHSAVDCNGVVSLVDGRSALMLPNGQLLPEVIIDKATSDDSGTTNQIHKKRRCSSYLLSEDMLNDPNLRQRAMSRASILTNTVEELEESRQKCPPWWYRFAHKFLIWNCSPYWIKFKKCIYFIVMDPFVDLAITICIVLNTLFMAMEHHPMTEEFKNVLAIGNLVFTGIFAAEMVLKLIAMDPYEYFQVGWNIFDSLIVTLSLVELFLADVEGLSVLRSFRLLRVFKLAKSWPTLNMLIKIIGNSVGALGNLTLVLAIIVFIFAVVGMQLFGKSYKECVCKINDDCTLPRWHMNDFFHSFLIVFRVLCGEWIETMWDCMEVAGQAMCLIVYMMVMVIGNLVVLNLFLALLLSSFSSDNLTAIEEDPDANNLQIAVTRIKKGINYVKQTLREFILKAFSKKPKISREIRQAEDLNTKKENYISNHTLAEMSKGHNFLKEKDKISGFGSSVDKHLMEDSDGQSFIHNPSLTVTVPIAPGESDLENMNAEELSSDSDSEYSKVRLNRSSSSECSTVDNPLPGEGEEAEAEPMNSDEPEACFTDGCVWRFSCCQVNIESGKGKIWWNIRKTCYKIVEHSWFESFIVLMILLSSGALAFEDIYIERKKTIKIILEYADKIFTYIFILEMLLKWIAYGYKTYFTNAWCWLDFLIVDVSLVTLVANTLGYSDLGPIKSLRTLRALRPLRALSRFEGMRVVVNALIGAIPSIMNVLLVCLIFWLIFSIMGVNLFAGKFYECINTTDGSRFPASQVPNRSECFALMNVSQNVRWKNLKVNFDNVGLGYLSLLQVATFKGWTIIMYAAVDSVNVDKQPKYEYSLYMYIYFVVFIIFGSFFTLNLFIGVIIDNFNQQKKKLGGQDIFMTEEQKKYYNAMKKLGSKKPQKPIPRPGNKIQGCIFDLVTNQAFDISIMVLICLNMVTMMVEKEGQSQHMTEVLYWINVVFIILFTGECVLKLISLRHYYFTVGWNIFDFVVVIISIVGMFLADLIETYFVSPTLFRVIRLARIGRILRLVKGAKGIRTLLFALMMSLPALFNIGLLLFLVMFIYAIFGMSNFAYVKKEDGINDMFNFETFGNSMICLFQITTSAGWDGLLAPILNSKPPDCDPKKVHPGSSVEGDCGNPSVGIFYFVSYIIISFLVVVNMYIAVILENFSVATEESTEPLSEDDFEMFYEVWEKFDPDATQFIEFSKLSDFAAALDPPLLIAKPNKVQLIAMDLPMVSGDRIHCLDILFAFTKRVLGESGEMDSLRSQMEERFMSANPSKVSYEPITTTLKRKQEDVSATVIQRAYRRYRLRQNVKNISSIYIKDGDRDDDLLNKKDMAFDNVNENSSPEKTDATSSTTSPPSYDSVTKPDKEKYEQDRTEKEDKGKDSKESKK

This experiment addresses Sodium channel protein type 9 subunit alpha (Homo sapiens, UniProt Q15858). The experiment in a line: Human Nav1.7 Inhibitory Activity Evaluation. The procedure:
The amount of current through human Nav1.7 was recorded using a fully automatic patch clamp device QPatch16X (Sophion Biosciences) at room temperature. As the extracellular solution, the solution of 145 mM NaCl, 4 mM KCl, 1 mM MgCl2, 2 mM CaCl2, 10 mM Glucose, 10 mM 4-(2-hydroxyethyl)-1-piperazine ethanesulfonic acid (HEPES) at pH 7.4 was used. As the intracellular solution, the solution of 135 mM CsF, ⅕ mM glycol ether diaminetetraacetic acid (EGTA)/CsOH, 10 mM HEPES, 10 mM NaCl at pH 7.3 was used. The test compounds were dissolved in dimethyl sulfoxide (DMSO) and diluted with the extracellular solution to attain the DMSO concentration of 0.1% at the time of assay. The current response was obtained at a sampling frequency of 25 kHz, and noise was removed with a 3 kHz low-pass filter. The holding potential was −100 mV. Correction of the leakage current was carried out by applying a step pulse of −120 mV before the test pulse. In order to investigate inhibitory action of the test compound, the following test pulse was given: Namely, after depolarizing pulse of −10 mV was applied for 50 milliseconds, it was fixed at −120 mV for 500 milliseconds; a potential at which about 30-40% of the channel was inactivated was maintained for 15 seconds, then fixed again at −120 mV for 100 milliseconds, and finally a −10 mV depolarization pulse was given for 50 milliseconds. Test pulses were given before and after the test compound addition.
As usually defined, the IC50 is the concentration that inhibits the measured activity by half. `N#Cc1ccc2c(c1)C[C@@H](NC(=O)c1cc3n(n1)CCC(CC1CC1)O3)CO2` (single isomer, unassigned) [US12421225, Example 97 (isomer B)] had an IC50 of under 1 µM.

`CC[C@@H]1CCn2nc(C(=O)N[C@H]3COc4ccc(C#N)cc4C3)cc2O1` (single isomer, unassigned; isomer B) [US12421225, Example 92 (isomer B)] returned an IC50 of under 1 µM. As for `O=C(N[C@H]1COc2ccc(-c3ccccn3)cc2C1)c1cc2n(n1)CC[C@@H](COCC1CC1)O2` (single isomer, unassigned; isomer B) [US12421225, Example 111 (isomer B)], the figure is under 1 µM; as for `O=C(N[C@H]1COc2ccc(CC(F)F)cc2C1)c1cc2n(n1)CC[C@@H](COCC(F)(F)F)O2` (single isomer, unassigned; isomer B) [US12421225, Example 127 (isomer B)], under 1 µM; as for `N#Cc1ccc2c(c1)C[C@@H](NC(=O)c1cc3n(n1)C[C@@H](CCCOC(F)(F)F)O3)CO2` (single isomer, unassigned; isomer B) [US12421225, Example 247 (isomer B)], under 1 µM. Take `N#Cc1ccc2c(c1)C[C@@H](NC(=O)c1cc3n(n1)CC[C@@H](COCC1(F)CC1)O3)CO2` (single isomer, unassigned; isomer B) [US12421225, Example 552 (isomer B)]: the IC50 is at most 10 µM.

The compound `O=C(N[C@H]1COc2ccc(Br)cc2C1)c1cc2n(n1)CC(C(F)(F)F)O2` (some centres not stated) [US12421225, Example 445] yielded an IC50 of under 1 µM.
